What all share (experiment): relative viability (nuclei count vs DMSO), 5 days (fraction); higher = more cells survive
Compound in the test “RU-SKI 43 + Alpelisib”: CC[C@@H](C)CNCC(=O)N1CCC2=C([C@@H]1COC3=CC=CC(=C3)C)C=CS2 [RU-SKI 43] + Cc1nc(NC(=O)N2CCC[C@H]2C(N)=O)sc1-c1ccnc(C(C)(C)C(F)(F)F)c1 [Alpelisib] (partner 2 µM)
Summed up:
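Lung cancer cell lines in 1536-well plates got either a single drug or a fixed anchor-drug dose together with five library-drug doses (not always all listed) in √10 steps, by pin tool, on the day after seeding. Nuclei were counted after 5 days, and relative viability is the treated-to-vehicle ratio of nuclei counts. Values are medians of duplicate plates.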

Compound in the next test: CCc1c2c(nc3ccc(OC(=O)N4CCC(N5CCCCC5)CC4)cc13)-c1cc3c(c(=O)n1C2)COC(=O)[C@]3(O)CC [Irinotecan]
Summed up:
(§1)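 Five library-drug doses spaced by √10 were pinned onto vehicle-anchored 1536-well plates of lung cancer cell lines that had been kept overnight at 37 °C. Cells went 5 days without medium change, then were fixed, permeabilised and Hoechst-stained together, imaged at 4× and counted by MetaXpress. Viability is the ratio of treated-well to vehicle-well nuclei, taken as a median over plates. Plates required control CV below 25% and at least one doubling.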

Compound in a further test: CC[C@@H](C)CNCC(=O)N1CCC2=C([C@@H]1COC3=CC=CC(=C3)C)C=CS2 [RU-SKI 43]
An outline of the steps: as §1

Compound in the next test: Cn1cc(-c2cnc3ccc4ccc(CS(=O)(=O)NCc5ccccn5)cc4c(=O)c3c2)cn1 [MK-8033]
Summed up: as §1

UMC-11: the relative viability with RU-SKI 43 + Alpelisib (first compound 0.1 µM) turned out to be 1.06; in the test with RU-SKI 43 + Alpelisib (first compound 0.3162 µM), 1.18; with RU-SKI 43 + Alpelisib (first compound 1 µM), 1.16; in the test with RU-SKI 43 + Alpelisib (first compound 3.162 µM), 1.04; with RU-SKI 43 + Alpelisib (first compound 10 µM), 0.901; with Irinotecan (0.6325 µM), 0.677. In addition, the relative viability in the test with Irinotecan (2 µM) was 0.675; with Irinotecan (6.325 µM) it was 0.401; with Irinotecan (20 µM) it was 0.264; with RU-SKI 43 (0.1 µM), 1.07; in the test with RU-SKI 43 (0.3162 µM), 1.11; in the test with RU-SKI 43 (1 µM), 1.08. For the same cell line, the relative viability with RU-SKI 43 (3.162 µM) amounted to 1.07; in the test with RU-SKI 43 (10 µM) it was 0.843; in the test with MK-8033 (0.02 µM), 0.962; with MK-8033 (0.06325 µM) it was 0.837; with MK-8033 (0.2 µM) it was 0.916; with MK-8033 (0.6325 µM), 1. The relative viability with MK-8033 (2 µM) stood at 0.982.

(Values after the supplement of paper PMC10307832.)
